{"source": "patent US20250057971A1", "about": "“TARGETED SAPONIN-NUCLEIC ACID CONJUGATES FOR TREATMENT OF MUSCLE WASTING DISORDERS” (SAPREME TECHNOLOGIES B.V., priority 2021, published 2025)", "key": {"dystrophin exon 51": {"tested_on": "dystrophin exon 51", "assay": "Exon 51 skip analysis in differentiated human myotubes from a non-DMD (healthy) donor (KM155)", "assay_type": "cell-based", "conditions": "alone or + 4 μM SO1861-EMCH (see label), 72 hrs", "procedure": "Immortalized human myoblasts from non-DMD donors (KM155) and myoblasts from a DMD-affected donor (DM8036) were cultured in Skeletal Muscle Cell Growth Medium (PromoCell, Germany) with supplementary pack according to manufacturer's instructions, further supplemented with 15% fetal bovine serum (Gibco, United Kingdom) and 0.5% gentamicin (Sigma-Aldrich, USA). For differentiation, cells were seeded on a 0.5% gelatin-coated surface, and at ˜70-80% confluence, the proliferation medium was replaced by DMEM (Gibco) supplemented with 2% FBS (Gibco), 2% GlutaMAX, and 1% glucose (Sigma-Aldrich) and 0.5% gentamycin. Treatments were started after at least 3 days up to a maximum of 5 days of differentiation (based on the presence of differentiated myotubes).\nRNA was isolated with the TRIsure Isolation Reagent (Bioline) and chloroform extraction; isopropanol precipitation of RNA from the aqueous phase was performed as known to someone skilled in the art. For cDNA synthesis, 1000 ng of total RNA was used and diluted in an appropriate amount of RNase-free water to yield 8 μl RNA dilution. The priming premixed contained 1 μl dNTP mix (10 mM each) and 1 μl specific reverse primer (for KM155, h53R 5′-[…]-3′ [SEQ ID NO: 5]; for DM8036, h55R 5′-[…]-3′ [SEQ ID NO: 6]). This mixture was heated for 5 min at 70° C., then chilled on ice for at least 1 min. A reaction mixture was prepared containing 0.5 μl rRNasin (Promega), 4.0 μl RT buffer, 1.0 μl Tetro RT (Bioline), and 4.5 μl RNase-free water, and was added to the chilled mixture to yield a total volume of 20 μl per reaction. The RT-PCR was run for 60 min at 42° C., then 5 min at 85° C., and chilled on ice. For skip analysis, a nested PCR approach was followed. To this end, in the first PCR, 3 μl cDNA were added to a mix of 2.5 μl 10×SuperTaq PCR buffer, 0.5 μl dNTP mix (10 mM each), 0.125 μl Taq DNA polymerase TAQ-RO (5 U/μl; Roche) 16.875 μl RNase-free water and 1 μl ([…]) of each primer flanking the targeted exons were used: for KM155, h48F 5′-[…]-3′ [SEQ ID NO: 7] and h53R 5′-[…]-3′ [SEQ ID NO: 5]; for DM8036, h47F2 5′-[…]-3′ [SEQ ID NO: 8] and h54R 5′-[…]-3′ [SEQ ID NO: 9]. These samples were subjected to a PCR run of 5 min at 94° C., then 25 cycles with 40 sec at 94° C., 40 sec at 60° C., 180 sec at 72° C., after which for 7 min at 72° C. For the second PCR, 1.5 μl PCR1 sample were added to a mix of 5 μl 10×SuperTaq PCR buffer, 1 μl dNTP mix (10 mM each), 0.25 μl Taq DNA polymerase TAQ-RO (5 U/μl; Roche), 38.25 μl RNase-free water and 2 μl ([…]) of each primer flanking the targeted exons were used: for KM155, h49F 5′-[…]-3′ [SEQ ID NO: 10] and h52R2 5′-[…]-3′ [SEQ ID NO: 11]; for DM8036, h47F 5′-[…]-3′ [SEQ ID NO: 12] and h53R 5′-[…]-3′ [SEQ ID NO: 13]. These samples were subjected to a PCR run of 5 min at 94° C., then 32 cycles with 40 sec at 94° C., 40 sec at 60° C., 60 sec at 72° C., after which for 7 min at 72° C. Exon skipping levels were quantified with the Femto Pulse System using the Ultra Sensitivity NGS Kit (Agilent), according to the manufacturer's instructions. Alternatively, the specific PCR fragments were analyzed using Bioanalyzer 2100 with DNA1000 chip (lab-on-a-chip; Agilent), or separated on 2% agarose gels run at 120 V. Gels were imaged and band intensities were quantified using ImageJ. The expected non-skipped product has a size of 408 bp (KM155) and 475 bp (DM8036), and the skip product of 175 bp (KM155) or 242 bp (DM8036), respectively.\nImmortalized human myoblasts from non-DMD donors (KM155) were cultured as described above in the Methods (as performed in Examples 1-6).\nRNA was isolated with the TRIsure Isolation Reagent (Bioline) and chloroform extraction; isopropanol precipitation of RNA from the aqueous phase was performed as known to someone skilled in the art. […]"}, "dystrophin exon 23": {"tested_on": "dystrophin exon 23", "assay": "Exon 23 skip analysis in differentiated murine C2C12 myotubes", "assay_type": "cell-based, mouse", "procedure": "Murine myoblast cell line C2C12 was maintained in 10% FBS DMEM medium+Pen/Strep and plated at 240,000 cells per well (cpw) in 24-well plates or 40,000 cpw in 96-well plates (wp) in maintenance medium (10% FBS in DMEM medium+Pen/Strep) and incubated at 37° C. with 5% CO2. Twenty-four hours after seeding, cells were switched to differentiation media (2% horse serum in DMEM) and incubated for 3 days before refreshing the medium. After another 24 hours, medium was refreshed again and compounds were added and incubated for 48 hours. Differentiation medium was then refreshed (without compounds), and cells were incubated for another 24 hours. At 72 hours total post treatment, cells in the 24-wp were harvested for exon skip analysis and the cell viability was assessed on the 96-wp.\nFor analysis of skip from murine cell lines, cells were harvested and RNA was isolated using 0.5 ml TRIzol™ Reagent (Thermo Scientific) per sample, according to the manufacturer's instruction. […] Samples were mixed with 2 μl 6×loading buffer, then 16 μl were loaded onto an 2% agarose gel and ran for 60-90 min at 80 V. Gels were imaged and band intensities were quantified with a ChemiDoc™ XRS+System and Image Lab™ Software (BioRad). […]"}}, "note": "In the oligonucleotide strings, read from the 5' end, every base follows the letter of its sugar. An asterisk marks phosphorothioate; unmarked linkages are phosphodiester. Other units and linkages are bracketed, terminal groups are in braces. A string of capitals states the bases alone. m = 2'-O-methyl"}
{"substance": "DMD-ASO: 2′O-methyl-phosporothioate antisense oligonucleotide 5′-UCAAGGAAGAUGGCAUUUCU-3′ (SEQ ID NO: 1); exon 51 skipping of human dystrophin; same sequence and chemistry as drisapersen (antisense mU*mC*mA*mA*mG*mG*mA*mA*mG*mA*mU*mG*mG*mC*mA*mU*mU*mU*mC*mU; further chemistry not fully specified)", "values": [{"measurement": "% exon skipping (Lab-on-a-chip)", "setting": "dystrophin exon 51; 0.08 μM DMD oligo", "result": 0, "unit": "%"}, {"measurement": "% exon skipping (Lab-on-a-chip)", "setting": "dystrophin exon 51; 0.31 μM DMD oligo", "result": 0, "unit": "%"}, {"measurement": "% exon skipping (Lab-on-a-chip)", "setting": "dystrophin exon 51; 1.25 μM DMD oligo", "result": 0, "unit": "%"}, {"measurement": "% exon skipping (Lab-on-a-chip)", "setting": "dystrophin exon 51; 5 μM DMD oligo", "result": 1, "unit": "%"}]}
{"substance": "M23D: PMO 5′-GGCCAAACCTCGGCTTACCTGAAAT-3′ (SEQ ID NO: 3) that induces exon 23 skipping of mouse dystrophin (all phosphorodiamidate morpholino (PMO); further chemistry not fully specified)", "values": [{"measurement": "exon 23 skip", "setting": "dystrophin exon 23; 500 nM M23D alone (0 nM conjugate), Example 3", "result": 5, "unit": "%"}, {"measurement": "exon 23 skip activity", "setting": "dystrophin exon 23; 500 nM M23D alone, Example 8, FIG. 20C", "result": "no exon skip activity"}]}
{"substance": "DMD-PMO: PMO 5′-CTCCAACATCAAGGAAGATGGCATTTCTAG-3′ (SEQ ID NO: 2); exon 51 skipping of human dystrophin; same sequence but not 5′-modifications as eteplirsen (all phosphorodiamidate morpholino (PMO))", "values": [{"measurement": "% exon skipping (Femto)", "setting": "dystrophin exon 51; 0.08 μM DMD oligo", "result": 0, "unit": "%"}, {"measurement": "% exon skipping (Femto)", "setting": "dystrophin exon 51; 0.31 μM DMD oligo", "result": 0, "unit": "%"}, {"measurement": "% exon skipping (Femto)", "setting": "dystrophin exon 51; 1.25 μM DMD oligo", "result": 0, "unit": "%"}, {"measurement": "% exon skipping (Femto)", "setting": "dystrophin exon 51; 5 μM DMD oligo", "result": 0, "unit": "%"}, {"measurement": "% exon skipping (Femto)", "setting": "dystrophin exon 51; 20 μM DMD oligo", "result": 4, "unit": "%"}]}
